The subject of this assay is milkweed bug, Oncopeltus fasciatus (Dallas). In words: anti-juvenile hormone activity and insecticidal activity against the milkweed bug (treated filter paper, second-instar nymphs). The assay is classed as in vivo. The conditions noted are these: for LD50 (ED50 or LD50; compounds without asterisk, functioned as insecticides): insecticidal activity, mortality to at least 50% of the insects; for LD50 (ED50 or LD50; compounds without asterisk, functioned as insecticides) / ED50 (ED50 or LD50; compounds marked with asterisk, functioned as anti-juvenile hormone): second-instar nymphs, treated filter paper, 70° F, 3 to 4 weeks; for type of action (anti-juvenile hormone or general insecticide): statement in words on Table II; for ED50 (ED50 or LD50; compounds marked with asterisk, functioned as anti-juvenile hormone): anti-juvenile hormone activity (asterisk). How it is done:
Compounds were tested for anti-juvenile hormone activity and insecticidal activity against the milkweed bug, Oncopeltus fasciatus (Dallas) as follows: The test compounds were diluted in acetone and impregnated into a filter paper disc by applying 0.6 milliliters and permitting the solvent to completely evaporate. Ten second-instar nymphs of Oncopeltus fasciatus (Dallas) were placed in a petri dish with the treated filter paper. The nymphs were supplied with milkweed seeds and water (by soaking dental cotton in a 4-dram vial cap). All petri dishes were stored at 70° F. The compounds were tested at concentrations ranging from 10 μg/cm^2 of filter paper downwards. The insecticidal or anti-juvenile hormone effect was determined when control insects had developed into normal adults, normally 3 to 4 weeks. The asterisk in the Table signifies that the indicated compound functioned as an anti-juvenilehormone. Compounds not marked with an asterisk functioned as insecticides,resulting in mortality to at least 50% of the insects at the indicated level.

Take `C#CCOc1ccc2c(c1)OC(C)(C)C=C2` [Compound 1]: the “LD50 (ED50 or LD50; compounds without asterisk, functioned as insecticides)” value amounted to 2 ug/cm^2 and the “type of action (anti-juvenile hormone or general insecticide)” value (“type of action” for short) is reported as “function as general insecticides”.
On to `C=CCOc1ccc2c(c1)OC(C)(C)C=C2` [Compound 3, 2,2-dimethyl-7-allyloxy-3-chromene], for which the “ED50 (ED50 or LD50; compounds marked with asterisk, functioned as anti-juvenile hormone)” value is listed as 2 ug/cm^2 and the “type of action” value was “function as anti-juvenile hormones”.
On the same counts, the results for `C#CCOc1cc2c(cc1OC)C=CC(C)(C)O2` [Compound 6] are 1 ug/cm^2 and “function as anti-juvenile hormones”.
On to `C#CCOc1cc2c(cc1OC)OC(C)(C)C=C2` [Compound 4], for which the “LD50 (ED50 or LD50; compounds without asterisk, functioned as insecticides)” value turned out to be 6 ug/cm^2 and the “type of action” value is listed as “function as general insecticides”.
With `CC#CCOc1ccc2c(c1)OC(C)(C)C=C2` [Compound 2], the “ED50 (ED50 or LD50; compounds marked with asterisk, functioned as anti-juvenile hormone)” value was 0.5 ug/cm^2 and the “type of action” value is listed as “function as anti-juvenile hormones”.
With `C=CCOc1cc2c(cc1OC)OC(C)(C)C=C2` [Compound 5], the “LD50 (ED50 or LD50; compounds without asterisk, functioned as insecticides)” value is recorded as 8 ug/cm^2 and the “type of action” value is listed as “function as general insecticides”.
For `C=CCOc1cc2c(cc1OC)C=CC(C)(C)O2` [Compound 7], the “ED50 (ED50 or LD50; compounds marked with asterisk, functioned as anti-juvenile hormone)” value was determined as 0.5 ug/cm^2 and the “type of action” value was “function as anti-juvenile hormones”.

These data come from patent US4162326A, “Insect control agents” (Stauffer Chemical Company, priority 1978, dated 1979).
